Assays:
[1] = Crossflow nanofiltration of ZIPGEM-pretreated water; details: for PFAS concentration, membrane permeates (MP): ZIPGEM-nanofiltration @ 30 h
Protocol: (§1) The water samples were collected from the same site of the C-23 canal during both the dry and wet seasons. However, only wet season water samples were used in the experiment. The water samples were analyzed for both long-chain (PFOA and PFOS) and short-chain (Perfluorobutanoic acid [PFBA] and Perfluorobutanesulfonic acid [PFBS]) PFAS following the modified EPA 537.1 method (Shoemaker & Tettenhorst, 2020). Through this method, an aliquot of a 250 mL water sample containing analytes and internal standards is extracted via solid phase extraction. The extracted analytes and internal standards are then eluted with methanol and ammonium hydroxide in methanol solvent. Then the eluted samples are dried with nitrogen and reconstituted to 1 mL volume with a buffer solution. The samples are then injected into a C18 liquid chromatography column, and the PFAS compounds are separated by a gradient of pure methanol and 20 mM ammonium acetate. Finally, the eluted compounds are detected, and their concentrations are measured via tandem mass spectrometry. The method detection limits (MDLs) for PFBA, PFBS, PFOA, and PFOS were 0.5 ng·L^−1, 2 ng·L^−1, 0.5 ng·L^−1, and 1 ng·L^−1, respectively. The concentration of calcium ion (Ca^2+) was analyzed at Eurofins Flowers's Chemical Laboratories (Altamonte Springs, Florida) following EPA method 6010D using inductively coupled plasma optical emission spectroscopy (MDL=0.096 mg·L^−1). Total organic carbon (TOC) and dissolved organic carbon (DOC) were measured using a TOC analyzer following EPA method 415.3.
(§2) A commercially available nanofiltration membrane (membrane ID: XN45) was used for the crossflow nanofiltration experiment. The membranes were acquired as flat sheets and cut into coupons of required sizes (active surface area of 42 cm^2) to fit into a membrane cell (CF042).
(§3) A bench-scale crossflow filtration setup was used in these experimental methods. The experimental setup consisted of a feed tank, a centrifugal pump, three CF042 membrane cells connected to pressure gauges, check valves, and flowmeters. A recirculating chiller was used for regulating the temperature at 20° C. Three high-precision balances were used to measure the weight of the collected permeate and to calculate the flowrates. The scales were connected to a computer for data acquisition.
(§4) Before each experimental run, the membrane cells and tubing were cleaned by running DI water as feed without placing any membrane coupons inside the cells. Then the membrane coupons were mounted into the cells firmly and compacted at 100 psi for at least 4 h using DI water. After that, 5 L of the effluents from the pretreatment media (i.e., the C-23 water samples that were run through the CPS and ZIPGEM) were taken as feedwater for each nanofiltration filtration experiment. The experiments were run for 24 h before collecting permeates and feed samples for analysis. The experiments were conducted at a constant flowrate of 1.0 L·min^−1, with a corresponding cross flow velocity of 0.18 m·s^−1. The transmembrane pressure was initially set to 110 psi at the beginning of the permeate collection by regulating inlet and retentate valves. However, the pressure changed over time as feed concentration increased during the permeate collection. The experiment was run in total recirculation mode, whereby both the retentate and permeate were recycled, except the time of permeate collection.
(§5) The average removal efficiencies of each media pretreatment were calculated based on PFAS concentrations in the influents and effluents of triplicate columns, as disclosed in TABLE 5. […] The overall efficiency of the hybrid treatment was calculated by comparing the average concentrations of PFAS in the influents of the green sorption media pretreatment columns and the nanofiltration permeates, as disclosed in TABLE 6. […]

[2] = Overall removal by ZIPGEM-nanofiltration water treatment system
From the text: Water samples collected from the C-23 canal were first fortified with PFOS and PFOA and then used as influents to the pretreatment column containing one of the two green sorption media. Note the water samples were not fortified with PFBA and PFBS. The green sorption media effluent served as the feedwater for the nanofiltration unit of the proposed water treatment system. The nanofiltration membrane unit without any green sorption media-based pretreatment served as the “control.” The integration of a green sorption media (CPS or ZIPGEM) with crossflow nanofiltration is herein referred to as a water treatment system, denoted as CPS-nanofiltration or ZIPGEM-nanofiltration. The CPS and ZIPGEM column influents and effluents and nanofiltration permeates were analyzed for both long-chain (PFOS and PFOA) and short-chain (PFBS and PFBA) PFAS. FIG. 3 presents the green sorption media-nanofiltration hybrid treatment scheme.
The average removal efficiencies of each media pretreatment were calculated based on PFAS concentrations in the influents and effluents of triplicate columns, as disclosed in TABLE 5. […] The overall efficiency of the hybrid treatment was calculated by comparing the average concentrations of PFAS in the influents of the green sorption media pretreatment columns and the nanofiltration permeates, as disclosed in TABLE 6.
where C0 is the concentration of PFAS in the column influent or nanofiltration feed in ng·L^−1, and where Ce is the concentration of PFAS in the column effluent or nanofiltration permeate in ng·L^−1. TABLE 7 summarizes the key findings of the green sorption media-based pretreatment and green sorption media-nanofiltration treatment, and these are explained in the subsequent subsection through an in-depth discussion and statistical analysis. It should be noted that PFOS concentration was slightly higher in the membrane permeates compared to the effluent of green sorption media pretreatment media, as disclosed in TABLE 5. The slight increase in PFOS concentration could be attributed to the filtration experimental setup that operated in a total recirculation mode. However, most of the differences were very close to the MDL for PFOS (1 ng·L^−1), which was already undetected in the green sorption media effluent

[3] = Crossflow nanofiltration of CPS-pretreated water; details: for PFAS concentration, membrane permeates (MP): CPS-nanofiltration @ 9 h
Protocol: as §1, §2, §3, §4, §5

[4] = feed = ZIPGEM column 1 effluent
[5] = feed = ZIPGEM column 2 effluent
[6] = feed = ZIPGEM column 3 effluent

| Compound | PFAS concentration, membrane permeates (MP) ([1]; Col 1) [ng/L] | PFAS concentration, membrane permeates (MP) ([1]; Col 2) [ng/L] | PFAS concentration, membrane permeates (MP) ([1]; Col 3) [ng/L] | nanofiltration membrane removal [1, 4] [%] | nanofiltration membrane removal [1, 5] [%] | nanofiltration membrane removal [1, 6] [%] | O = overall removal by water treatment system ([2]; column 1) [%] | O = overall removal by water treatment system ([2]; column 2) [%] | O = overall removal by water treatment system ([2]; column 3) [%] | PFAS concentration, membrane permeates (MP) ([3]; Col 1) [ng/L] | PFAS concentration, membrane permeates (MP) ([3]; Col 2) [ng/L] | PFAS concentration, membrane permeates (MP) ([3]; Col 3) [ng/L] | nanofiltration membrane removal ([3]; feed = CPS column 1 effluent) [%] | nanofiltration membrane removal ([3]; feed = CPS column 2 effluent) [%] | nanofiltration membrane removal ([3]; feed = CPS column 3 effluent) [%] |
| --- | --- | --- | --- | --- | --- | --- | --- | --- | --- | --- | --- | --- | --- | --- | --- |
| O=C(O)C(F)(F)C(F)(F)C(F)(F)F [PFBA, Perfluorobutanoic acid] | 4.43 | 4.77 | 4.70 | 37 | 32 | 36 | 40 | 36 | 41 | 3.20 | 4.17 | 3.60 | 47 | 28 | 33 |
| O=S(=O)(O)C(F)(F)C(F)(F)C(F)(F)C(F)(F)F [PFBS, Perfluorobutanesulfonic acid] | 4.67 | 4.23 | 5.10 | 23 | 32 | 36 | 28 | 35 | 35 | 3.27 | 3.40 | 2.67 | 26 | 15 | 35 |
| O=C(O)C(F)(F)C(F)(F)C(F)(F)C(F)(F)C(F)(F)C(F)(F)C(F)(F)F [PFOA, Perfluorooctanoic acid] | 21.67 | 14.00 | 23.67 | 66 | 78 | 68 | 73 | 82 | 70 | 2.27 | 5.83 | 2.43 | 40 | 58 | 78 |
| O=S(=O)(O)C(F)(F)C(F)(F)C(F)(F)C(F)(F)C(F)(F)C(F)(F)C(F)(F)C(F)(F)F [PFOS, Perfluorooctanesulfonic acid] | 1.70 | 0.79 | 1.05 | 100 | 100 | 100 | 100 | 100 | 100 | 2.0 | 1.90 | 0.74 | 100 | 100 | 100 |

Source: patent US20250091911A1, “NANOFILTRATION SYSTEM AND METHOD INCLUDING PRETREATMENT WITH GREEN SORPTION MEDIA” (University of Central Florida Research Foundation, Inc., priority 2023, published 2025)
